Assay results reported in patent publication US9081736B2, “Modeling of mPGES-1 three-dimensional structures: applications in drug design and discovery” (The University of Kentucky Research Foundation, priority 2007, dated 2015).
Numbering of substitutions follows the chain as printed.

Columns and labels:
mPGES-1 = target: T1, mPGES-1 (Homo sapiens, UniProt O14684); settings: background statement; not selective for mPGES-1; cited from earlier work
T1 sequence (O14684 1-152): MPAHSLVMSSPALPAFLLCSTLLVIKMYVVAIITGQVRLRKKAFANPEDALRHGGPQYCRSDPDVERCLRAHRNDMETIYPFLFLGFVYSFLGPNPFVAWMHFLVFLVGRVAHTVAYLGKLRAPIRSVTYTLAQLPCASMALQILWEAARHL

mPGES-1 Q36E mutant = target: T2, mPGES-1 Q36E mutant (Homo sapiens, UniProt O14684, Q36E); experiment: Activity assay, saturation kinetics for PGH2, Q36E mutant; type: biochemical; settings: 2.5 mM GSH, 1-500 μM PGH2, errors expected to be very large, read-out: Experimental KM, this work
T2 sequence (O14684 1-152 Q36E): T1 sequence (O14684 1-152) with Q36E
Description: (§1) Expression and Preparation for the Membrane Fraction of mPGES-1 and its Mutants in E. coli: The wild-type mPGES-1 and its mutant plasmids from XLI-Blue were transformed into M15 E. coli cells. Cells were grown in 500 ml TB media containing 100 μg/ml ampicillin and 25 μg/ml kanamycin at 37° C. with shaking at 270 rpm until OD reached 0.8. IPTG was added to a final concentration of 2 mM and cells were allowed to grow for additional 3 hours at 37° C. Cells were then harvested by centrifugation at 5000 g for 15 min at 4° C. […] The cells were broken by sonication, and then the cell lysate was cleared by centrifugation at 12,500 g for 10 min. […] Total protein concentration of the membrane fraction was determined by coomassie protein assay according to the manufacture's instruction (Bio-Rad) with BSA as a standard.
(§2) The reaction contents were 1:2500 diluted, from which 50 μl aliquot was used for quantification of […] concentration by EIA assay. […] The KM values of wild-type mPGES-1 and its mutants were calculated by using the GraphPad Prism 4.01 program.

mPGES-1 Q134E mutant = target: T3, mPGES-1 Q134E mutant (Homo sapiens, UniProt O14684, Q134E); experiment: Activity assay, saturation kinetics for PGH2, Q134E mutant; type: biochemical; settings: 2.5 mM GSH, 1-500 μM PGH2, errors expected to be very large, read-out: Experimental KM, this work
T3 sequence (O14684 1-152 Q134E): T1 sequence (O14684 1-152) with Q134E
Description: as §1, §2

wild-type mPGES-1 = target: T4, wild-type mPGES-1 (Homo sapiens, UniProt O14684); experiment: Activity assay, saturation kinetics for PGH2, wild-type mPGES-1; type: biochemical; parameters: The specific oligonucleotide primers to full length of mPGES-1 were synthesized; made in house; host or cells: E. coli M15 (membrane fraction); settings: 2.5 mM GSH, 1-500 μM PGH2, on ice, read-out: Experimental KM, this work
T4 sequence (O14684 1-152): T1 sequence (O14684 1-152)
Description: as §1, §2

| Compound | Ability to inhibit mPGES-1 (mPGES-1) | Km (mPGES-1 Q36E mutant) [µM] | Km (mPGES-1 Q134E mutant) [µM] | Km (wild-type mPGES-1) [µM] |
| --- | --- | --- | --- | --- |
| CS(=O)(=O)Nc1ccc([N+](=O)[O-])cc1OC1CCCCC1 [NS-398] | able to inhibit mPGES-1 | – | – | – |
| CCCCC[C@H](O)/C=C/[C@@H]1[C@@H](C/C=C\CCCC(=O)O)[C@@H]2C[C@H]1OO2 [PGH2, prostaglandin H2] | – | ~1610 | ~734 | 130 |
